Assay results from patent US5622962A, “5α-reductase inhibitors” (priority 1995, dated 1997).

Columns and labels:
[1] = target: T1, Type II 5α-Reductase from Human Prostate (Homo sapiens, UniProt P31213); experiment: Human Type II 5α-reductase assay (conversion of [3H]-testosterone to 5α-reduced metabolites); assay type: biochemical; conditions: pH 5.5, 0.3 μM; sodium acetate pH 5.5, 25°, 30 min; compared to control reaction mixtures; read-out: percent inhibition of Type II AR
T1 construct: The same procedure as above was used for preparations using tissue from prostate surgery; from tissue; host or cells: human prostate tissue from surgery, homogenate, 100,000×g pellet
T1 sequence (P31213 1-254): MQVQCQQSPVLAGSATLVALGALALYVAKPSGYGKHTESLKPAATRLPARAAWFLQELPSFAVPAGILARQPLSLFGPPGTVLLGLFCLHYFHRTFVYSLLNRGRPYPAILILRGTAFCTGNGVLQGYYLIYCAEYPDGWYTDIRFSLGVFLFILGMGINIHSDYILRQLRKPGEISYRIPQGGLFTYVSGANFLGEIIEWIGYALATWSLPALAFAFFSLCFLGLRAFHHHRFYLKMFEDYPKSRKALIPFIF

[2] = target: T2, Type I 5α-Reductase from Human Scalp (Homo sapiens, UniProt P18405); experiment: Human Type I 5α-reductase assay (conversion of [3H]-testosterone to 5α-reduced metabolites); assay type: biochemical; conditions: 50 nM [3H]-testosterone, pH 7.5, 25°, 180 min, compared to control reaction mixtures; for inhibition at 0.3 µM: pH 7.5, 0.3 μM, read-out: percent inhibition of Type I AR
T2 construct: Scalp punch biopsies from graft recipient sites were obtained from human hair transplant procedures; from tissue; host or cells: human scalp punch biopsies (hair transplant graft recipient sites), homogenate, 100,000×g pellet
T2 sequence (P18405 1-259): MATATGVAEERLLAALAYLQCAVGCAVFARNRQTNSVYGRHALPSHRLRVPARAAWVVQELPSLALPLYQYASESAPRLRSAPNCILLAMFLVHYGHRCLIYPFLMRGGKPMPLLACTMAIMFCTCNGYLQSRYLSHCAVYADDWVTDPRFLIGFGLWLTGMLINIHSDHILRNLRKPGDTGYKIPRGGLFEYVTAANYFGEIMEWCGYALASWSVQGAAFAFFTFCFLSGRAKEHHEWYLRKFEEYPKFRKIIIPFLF

inhibition at 0.3 µM [1] [%]	inhibition at 0.3 µM [2] [%]	percent inhibition of Type I AR ([2]; 0.3 μM) [%]	Compound
	86		CN1C(=O)CC[C@]2(C)c3ccc(-c4cccc(F)c4F)cc3CC[C@@H]12 [Example 26, (+)-(4aR)-(10bR)-4-methyl-8-(2,3-difluorophenyl)-10b-methyl-1,2,3,4,4a,5,6,10b-octahydrobenzo[f]quinolin-3-one]
	92		CN1C(=O)CC[C@]2(C)c3ccc(-c4ccc(F)c(F)c4)cc3CC[C@@H]12 [Example 27, (+)-(4aR)-(10bR)-4-methyl-8-(3,4-difluorophenyl)-10b-methyl-1,2,3,4,4a,5,6,10b-octahydrobenzo[f]quinolin-3-one]
	88		CN1C(=O)CC[C@]2(C)c3ccc(Sc4ccccc4Cl)cc3CC[C@@H]12 [Example 99, (+)-(4aR)-(10bR)-4,10b-dimethyl-8-(2-chlorophenylthio)-1,2,3,4,-4a,5,6,10b-octahydrobenzo[f]quinolin-3-one]
	84		CN1C(=O)CC[C@]2(C)c3ccc(-c4ccc([N+](=O)[O-])cc4)cc3CC[C@@H]12 [Example 119, (+)-(4aR)-(10bR)-4-methyl-8-(4-nitrophenyl)-10b-methyl-1,2,3,4,4a,5,6,10b-octahydrobenzo[f]quinolin-3-one]
28			CN1C(=O)CC[C@]2(C)c3ccc(-c4cccs4)cc3CC[C@@H]12 [Example 278, (4aR)-(10bR)-4,10b-dimethyl-8-(2-thiophenyl)-1,2,3,4,4a,5,6,10b-octahydrobenzo[f]quinolin-3-one]

Continued, compound first:

Compound	inhibition at 0.3 µM [1] [%]	inhibition at 0.3 µM [2] [%]	percent inhibition of Type I AR ([2]; 0.3 μM) [%]
C[C@]12CCC(=O)N[C@@H]1CCc1cc(Sc3ccc(Cl)cc3)ccc12 [Example 5, (+)-(4aR)-(10bR)-8-(4-chlorophenylthio)-10b-methyl-1,2,3,4,4a,5,6,10b-octahydrobenzo [f]quinolin-3-one]	0	44	
Cc1ccc(Sc2ccc3c(c2)CC[C@H]2NC(=O)CC[C@]32C)cc1 [Example 6, (+)-(4aR)-(10bR)-8-(4-methylphenylthio)-10b-methyl-1,2,3,4,4a,5,6,10b-octahydrobenzo [f]quinolin-3-one]	23	11	
C[C@]12CCC(=O)N[C@@H]1CCc1cc(Sc3ccccc3Cl)ccc12 [Example 7]	42	49	
C[C@]12CCC(=O)N[C@@H]1CCc1cc(-c3cnc4ccccc4c3)ccc12 [Example 196, (+)-(4aR)-(10bR)-8-(3-quinolinyl)-10b-methyl-1,2,3,4,4a,-5,6,10b-octahydrobenzo[f]quinolin-3-one]			11
CN1C(=O)CC[C@]2(C)c3ccc(-c4cccc(NC(=O)c5ccccc5)c4)cc3CC[C@@H]12 [Example 273, (+)-(4aR)-(10bR)-4-methyl-8-(3-[benzoylamino]phenyl)-10b-methyl-1,2,3,4,4a,5,6,10b-octahydrobenzo[f]quinolin-3-one]	27		
CN1C(=O)CC[C@]2(C)c3ccc(/C=C/c4cncc5ccccc45)cc3CC[C@@H]12 [Example 281, (4aR)-(10bR)-4,10b-dimethyl-8-(2-[4-isoquinolinyl]ethenyl)-1,2,3,4,4a,5,6,10b-octahydrobenzo[f]quinolin-3-one]	44		
CN1C(=O)CC[C@]2(C)c3ccc(/C=C/c4cnc5ccccc5c4)cc3CC[C@@H]12 [Example 282, (4aR)-(10bR)-4,10b-dimethyl-8-(2-[3-quinolinyl]ethenyl)-1,2,3,4,4a,5,6,10b-octahydrobenzo[f]quinolin-3-one]	37		
CN1C(=O)CC[C@]2(C)c3ccc(/C=C/c4ccc5ccccc5n4)cc3CC[C@@H]12 [Example 283, (4aR)-(10bR)-4,10b-dimethyl-8-(2-[2-quinolinyl]ethenyl)-1,2,3,4,4a,5,6,10b-octahydrobenzo[f]quinolin-3-one]	37		
C[C@]12CCC(=O)N[C@@H]1CCc1cc(C(=O)Nc3ccccc3)ccc12 [Example 291, (+)-(4aR)-(10bR)-8-phenylcarboxamido-10b-methyl-1,2,3,4,4a,5,6,10b-octahydrobenzo[f]quinoline-3-one]	19		
